Literature values as cited in US11759447B1, “Compound and method for treating diseases and disorders” (RCR BIOPHARMA, priority 2019, dated 2023).

How the values were obtained:
dogs [1] = conditions: IV
[2] = oral forms such as CBD treats
dogs [3] = conditions: high levels of hemp-derived CBD (<0.3% THC)
dogs [4] = test system: dogs

CCCCCc1cc(O)c2c(c1)OC(C)(C)[C@@H]1CCC(C)=C[C@@H]21 [THC, Δ-9-tetrahydrocannabinol]
dose causing Static Ataxia (dogs [1]): > 0.5 mg/kg

C=C(C)[C@@H]1CCC(C)=C[C@H]1c1c(O)cc(CCCCC)cc1O [CBD, Cannabidiol]
fraction of orally administered CBD ultimately absorbed, on average [2]: 5-10% | dogs with ataxia (dogs [3]): 2 of the 10

COc1cccc(C2(O)CCCCC2CN(C)C)c1 (stereo not shown) [tramadol, Tramadol]
peak vertical force or vertical impulse versus placebo (dogs [4]): no improvement
